From publication PMC6137088, “The Role of Outer Membrane Proteins and Lipopolysaccharides for the Sensitivity of Escherichia coli to Antimicrobial Peptides” (Frontiers in Microbiology, 2018)
Where no end group is shown, it is not given here.

How the values were obtained:
Y. ruckeri 392/2003 = test: MIC testing (CLSI broth microdilution); type: cell-based; conditions: Table 6, triplicates
Method: (§1) The minimum inhibitory concentrations (MICs) of the AMPs were measured in 96-well microtiter plates according the Clinical and Laboratory Standards Institute [CLSI, formerly National Committee for Clinical Laboratory Standards (NCCLS)] (Wikler et al., [2009]). Liquid Mueller-Hinton-II medium containing increasing concentrations of AMPs is inoculated with a defined number of cells (~10^5 CFUs/ml) in 96-well microtiter plates (polypropylene). Each microtiter plate includes a positive growth control and a negative control (sterile control). After incubation, the minimal inhibitory concentration (MIC) is determined by the lowest concentration showing no visible growth. All plates were incubated for 16–20 h.

S. typhimurium LT2 = test: MIC testing (CLSI broth microdilution); type: cell-based; conditions: Table 6, triplicates
Method: as §1

E. coli ATCC25922 ΔwaaG = type: cell-based, Escherichia coli; conditions: Table 6, triplicates
Source text: (§2) The E. coli strains 470, F632, F653 and F2513 were kindly provided by Prof. H. Brade and Prof. S. Muller-Loennies, Research Center Borstel, Leipniz-Center for Medicine and Biosciences, Germany. E. coli BW25113 (CGSC#:7636), a derivative of F^−, λ^− E. coli K12 strain BD792 is the wild-type strain which was used in the generation of the KEIO collection and ordered from the Coli Genetic Stock Centre (CGSC, Yale University). E. coli JW3596, E. coli JW3024, E. coli JW3595, E. coli JW3606, E. coli JW0212, E. coli JW1667, E. coli JW0554, E. coli JW3605 and E. coli JW3600 are isogenic mutants of waaC, waaE, waaF, waaG, gmhA (lpcA), lpp, ompT, waaP, or waaY derived from the parental strain E. coli BW25113 and were ordered from the KEIO collection (Baba et al., [2006]). E. coli ATCC25922 is a clinical isolate, serotype O6, often used as control strain in antimicrobial susceptibility testing was ordered from the ATCC strain collection. All strains were grown in Mueller-Hinton-II medium and incubation took place aerobically at 37°C for 18–20 h.
as §1

E. coli ATCC25922 = type: cell-based, Escherichia coli; conditions: Table 6; E. coli ATCC25922 wild-type; triplicates
Source text: as §2, §1

E. coli ATCC25922 ΔwaaC = type: cell-based, Escherichia coli; conditions: Table 6, triplicates
Source text: as §2, §1

E. coli ATCC25922 ΔwaaE = type: cell-based, Escherichia coli; conditions: Table 6, triplicates
Source text: as §2, §1

E. coli ATCC25922 ΔwaaF = type: cell-based, Escherichia coli; conditions: Table 6, triplicates
Source text: as §2, §1

| Sequence | Antimicrobial activity: MIC (Y. ruckeri 392/2003) [mg/L] | Antimicrobial activity: MIC (S. typhimurium LT2) [mg/L] | Antimicrobial activity: MIC (E. coli ATCC25922 ΔwaaG) [mg/L] | Antimicrobial activity: MIC (E. coli ATCC25922) [mg/L] | Antimicrobial activity: MIC (E. coli ATCC25922 ΔwaaC) [mg/L] | Antimicrobial activity: MIC (E. coli ATCC25922 ΔwaaE) [mg/L] | Antimicrobial activity: MIC (E. coli ATCC25922 ΔwaaF) [mg/L] |
| --- | --- | --- | --- | --- | --- | --- | --- |
| GLRKRLRKFRNKDKEKLKKIGQKIQGLLPKLAPRTDY [I13D] | ≥64 | ≥64 | ≥64 | ≥64 | ≥64 | ≥64 | ≥64 |
| GLRKRLRKFRNKFKEKLKKIGQKIQGLLPKLAPRTDY [I13F] | 2 | 4 | 2 | 4 | 2 | 2 | 2 |
| GLRKRLRKFRNKHKEKLKKIGQKIQGLLPKLAPRTDY [I13H] | 8 to 16 | 4 | 2 | 4 | 2 | 2 | 2 |
| GLRKRLRKFRNKIKECLKKIGQKIQGLLPKLAPRTDY [K16C] | 8 to 16 | 8 to 16 | 8 | 8 | 4 | 8 | 4 |
| GLRKRLRKFRNKIKEDLKKIGQKIQGLLPKLAPRTDY [K16D] | 4 | 4 | 4 | 4 | 2 | 8 | 2 |
| GLRKRLRKFRNKIKEKDKKIGQKIQGLLPKLAPRTDY [L17D] | ≥64 | ≥64 | ≥64 | ≥64 | ≥64 | ≥64 | ≥64 |
| GLRKRLRKFRNKIKEKLKKIGQKDQGLLPKLAPRTDY [I24D] | ≥64 | ≥64 | ≥64 | ≥64 | 16 | 16 | 16 |
| GLRKRLRKFRNKIKEKLKKIGQKIQTLLPKLAPRTDY [G26T] | 2 to 4 | 4 to 8 | 4 | 8 | 4 | 4 | 4 |
| GLRKRLRKFRNKIKEKLKKIGQKNQGLLPKLAPRTDY [I24N] | ≥64 | 32 | 16 | ≥64 | 8 | 16 | 8 |
| GLRKRLRKFRNKIKEKLKKNGQKIQGLLPKLAPRTDY [I20N] | ≥64 | 8 to 16 | 16 | ≥64 | 16 | 16 | 8 |
| GLRKRLRKFRNKIKEKLPKIGQKIQGLLPKLAPRTDY [K18P] | 32 | 4 | 4 | 8 | 2 | 4 | 4 |
| GLRKRLRKFRNKIKEKPKKIGQKIQGLLPKLAPRTDY [L17P] | ≥64 | ≥64 | ≥64 | ≥64 | ≥64 | ≥64 | ≥64 |
| GLRKRLRKFRNKMKEKLKKIGQKIQGLLPKLAPRTDY [I13M] | 4 | 8 | 4 | 8 | 4 | 8 | 4 |
| GLRKRLRKFRNKPKEKLKKIGQKIQGLLPKLAPRTDY [I13P] | ≥64 | 16 to 32 | 32 | ≥64 | 32 | 32 | 16 |
| GLRKRLRKFRNKRKEKLKKIGQKIQGLLPKLAPRTDY [I13R] | 32 to 64 | 16 to 32 | 8 | ≥64 | 32 | ≥64 | 16 |
| GLRKRPRKFRNKIKEKLKKIGQKIQGLLPKLAPRTDY [L6P] | 64 | 8 | 4 | 8 | 4 | 8 | 4 |
